Data from the NIST ThermoML archive (doi:10.1016/j.fluid.2018.09.024).
± gives the expanded uncertainty stated by the source.

Assay: activity coefficient (dimensionless); of the first substance listed, at infinite dilution; xn = mol fraction of the nth substance listed
Details: 101.33 kPa, Liquid, Chromatography, x1 = 0

| SMILES | activity coefficient (318.15 K) | activity coefficient (328.15 K) | activity coefficient (338.15 K) | activity coefficient (348.15 K) | activity coefficient (358.15 K) | activity coefficient (368.15 K) | activity coefficient (378.15 K) |
| --- | --- | --- | --- | --- | --- | --- | --- |
| CC(C)CO [2-methyl-1-propanol] + CCCCCCCCCCCC[N+](C)(C)CCOc1ccccc1.O=S(=O)([N-]S(=O)(=O)C(F)(F)F)C(F)(F)F | 1.4 ± 0.09 | 1.33 ± 0.09 | 1.26 ± 0.08 | 1.21 ± 0.08 | 1.16 ± 0.07 | 1.12 ± 0.07 |  |
| CC(C)(C)O [2-methylpropan-2-ol] + CCCCCCCCCCCC[N+](C)(C)CCOc1ccccc1.N#C[N-]C#N |  | 0.539 ± 0.039 | 0.554 ± 0.04 | 0.569 ± 0.041 | 0.584 ± 0.041 | 0.598 ± 0.042 | 0.613 ± 0.043 |
| CC(C)(C)O [2-methylpropan-2-ol] + CCCCCCCCCCCC[N+](C)(C)CCOc1ccccc1.O=S(=O)([N-]S(=O)(=O)C(F)(F)F)C(F)(F)F | 1.14 ± 0.07 | 1.1 ± 0.07 | 1.06 ± 0.07 | 1.02 ± 0.06 | 0.986 ± 0.062 | 0.952 ± 0.06 |  |
| CCC(C)CC [3-methylpentane] + CCCCCCCCCCCC[N+](C)(C)CCOc1ccccc1.N#C[N-]C#N |  | 5.3 ± 0.36 | 5.37 ± 0.37 | 5.41 ± 0.37 | 5.46 ± 0.37 | 5.5 ± 0.37 | 5.5 ± 0.37 |
| CCC(C)CC [3-methylpentane] + CCCCCCCCCCCC[N+](C)(C)CCOc1ccccc1.O=S(=O)([N-]S(=O)(=O)C(F)(F)F)C(F)(F)F | 2.74 ± 0.19 | 2.81 ± 0.19 | 2.88 ± 0.2 | 2.95 ± 0.2 | 3.01 ± 0.2 | 3.07 ± 0.21 |  |
| C=C(C)c1ccccc1 [(1-methylethenyl)benzene] + CCCCCCCCCCCC[N+](C)(C)CCOc1ccccc1.N#C[N-]C#N |  | 1.11 ± 0.07 | 1.18 ± 0.08 | 1.25 ± 0.08 | 1.32 ± 0.09 | 1.39 ± 0.09 | 1.46 ± 0.1 |
| C=C(C)c1ccccc1 [(1-methylethenyl)benzene] + CCCCCCCCCCCC[N+](C)(C)CCOc1ccccc1.O=S(=O)([N-]S(=O)(=O)C(F)(F)F)C(F)(F)F | 0.784 ± 0.051 | 0.831 ± 0.054 | 0.881 ± 0.056 | 0.931 ± 0.059 | 0.985 ± 0.062 | 1.03 ± 0.06 |  |
| CC(C)=O [acetone] + CCCCCCCCCCCC[N+](C)(C)CCOc1ccccc1.N#C[N-]C#N |  | 0.721 ± 0.048 | 0.745 ± 0.049 | 0.767 ± 0.05 | 0.791 ± 0.051 | 0.813 ± 0.053 | 0.834 ± 0.054 |
| CC(C)=O [acetone] + CCCCCCCCCCCC[N+](C)(C)CCOc1ccccc1.O=S(=O)([N-]S(=O)(=O)C(F)(F)F)C(F)(F)F | 0.331 ± 0.032 | 0.353 ± 0.032 | 0.375 ± 0.033 | 0.398 ± 0.034 | 0.421 ± 0.035 | 0.445 ± 0.036 |  |
| CC#N [acetonitrile] + CCCCCCCCCCCC[N+](C)(C)CCOc1ccccc1.N#C[N-]C#N |  | 0.756 ± 0.05 | 0.766 ± 0.05 | 0.775 ± 0.051 | 0.785 ± 0.051 | 0.793 ± 0.052 | 0.801 ± 0.052 |
| CC#N [acetonitrile] + CCCCCCCCCCCC[N+](C)(C)CCOc1ccccc1.O=S(=O)([N-]S(=O)(=O)C(F)(F)F)C(F)(F)F | 0.473 ± 0.037 | 0.489 ± 0.037 | 0.506 ± 0.038 | 0.523 ± 0.039 | 0.539 ± 0.039 | 0.555 ± 0.04 |  |
| c1ccccc1 [benzene] + CCCCCCCCCCCC[N+](C)(C)CCOc1ccccc1.N#C[N-]C#N |  | 0.835 ± 0.054 | 0.87 ± 0.056 | 0.905 ± 0.057 | 0.938 ± 0.059 | 0.972 ± 0.061 | 1.01 ± 0.06 |
| c1ccccc1 [benzene] + CCCCCCCCCCCC[N+](C)(C)CCOc1ccccc1.O=S(=O)([N-]S(=O)(=O)C(F)(F)F)C(F)(F)F | 0.569 ± 0.041 | 0.6 ± 0.042 | 0.629 ± 0.043 | 0.658 ± 0.045 | 0.687 ± 0.046 | 0.716 ± 0.048 |  |
| CCCCO [butan-1-ol] + CCCCCCCCCCCC[N+](C)(C)CCOc1ccccc1.N#C[N-]C#N |  | 0.463 ± 0.036 | 0.473 ± 0.037 | 0.483 ± 0.037 | 0.494 ± 0.038 | 0.504 ± 0.038 | 0.514 ± 0.038 |
| CCCCO [butan-1-ol] + CCCCCCCCCCCC[N+](C)(C)CCOc1ccccc1.O=S(=O)([N-]S(=O)(=O)C(F)(F)F)C(F)(F)F | 1.38 ± 0.09 | 1.32 ± 0.09 | 1.28 ± 0.08 | 1.23 ± 0.08 | 1.19 ± 0.08 | 1.15 ± 0.07 |  |
| CCC(C)O (stereo unspecified) [butan-2-ol] + CCCCCCCCCCCC[N+](C)(C)CCOc1ccccc1.N#C[N-]C#N |  | 0.495 ± 0.038 | 0.508 ± 0.038 | 0.522 ± 0.039 | 0.536 ± 0.039 | 0.55 ± 0.04 | 0.564 ± 0.041 |

| SMILES | activity coefficient (318.15 K) | activity coefficient (328.15 K) | activity coefficient (338.15 K) | activity coefficient (348.15 K) | activity coefficient (358.15 K) | activity coefficient (368.15 K) | activity coefficient (378.15 K) |
| --- | --- | --- | --- | --- | --- | --- | --- |
| CCC(C)O (stereo unspecified) [butan-2-ol] + CCCCCCCCCCCC[N+](C)(C)CCOc1ccccc1.O=S(=O)([N-]S(=O)(=O)C(F)(F)F)C(F)(F)F | 1.23 ± 0.08 | 1.2 ± 0.08 | 1.17 ± 0.07 | 1.15 ± 0.07 | 1.12 ± 0.07 | 1.1 ± 0.07 |  |
| CCCC=O [butanal] + CCCCCCCCCCCC[N+](C)(C)CCOc1ccccc1.N#C[N-]C#N |  | 0.766 ± 0.05 | 0.779 ± 0.051 | 0.79 ± 0.051 | 0.803 ± 0.052 | 0.816 ± 0.053 | 0.828 ± 0.053 |
| CCCC=O [butanal] + CCCCCCCCCCCC[N+](C)(C)CCOc1ccccc1.O=S(=O)([N-]S(=O)(=O)C(F)(F)F)C(F)(F)F | 0.711 ± 0.047 | 0.742 ± 0.049 | 0.777 ± 0.051 | 0.81 ± 0.052 | 0.844 ± 0.054 | 0.876 ± 0.056 |  |
| C1CCCCCC1 [cycloheptane] + CCCCCCCCCCCC[N+](C)(C)CCOc1ccccc1.N#C[N-]C#N |  | 3.26 ± 0.22 | 3.29 ± 0.22 | 3.31 ± 0.23 | 3.34 ± 0.23 | 3.37 ± 0.23 | 3.39 ± 0.23 |
| C1CCCCCC1 [cycloheptane] + CCCCCCCCCCCC[N+](C)(C)CCOc1ccccc1.O=S(=O)([N-]S(=O)(=O)C(F)(F)F)C(F)(F)F | 2.26 ± 0.15 | 2.3 ± 0.16 | 2.34 ± 0.16 | 2.37 ± 0.16 | 2.4 ± 0.16 | 2.43 ± 0.17 |  |
| C1CCCCC1 [cyclohexane] + CCCCCCCCCCCC[N+](C)(C)CCOc1ccccc1.N#C[N-]C#N |  | 3.15 ± 0.21 | 3.16 ± 0.22 | 3.18 ± 0.22 | 3.2 ± 0.22 | 3.22 ± 0.22 | 3.24 ± 0.22 |
| C1CCCCC1 [cyclohexane] + CCCCCCCCCCCC[N+](C)(C)CCOc1ccccc1.O=S(=O)([N-]S(=O)(=O)C(F)(F)F)C(F)(F)F | 2.02 ± 0.14 | 2.05 ± 0.14 | 2.08 ± 0.14 | 2.11 ± 0.14 | 2.13 ± 0.14 | 2.16 ± 0.15 |  |
| C1=CCCCC1 [cyclohexene] + CCCCCCCCCCCC[N+](C)(C)CCOc1ccccc1.N#C[N-]C#N |  | 2.16 ± 0.15 | 2.19 ± 0.15 | 2.22 ± 0.15 | 2.26 ± 0.15 | 2.29 ± 0.16 | 2.31 ± 0.16 |
| C1=CCCCC1 [cyclohexene] + CCCCCCCCCCCC[N+](C)(C)CCOc1ccccc1.O=S(=O)([N-]S(=O)(=O)C(F)(F)F)C(F)(F)F | 1.47 ± 0.1 | 1.52 ± 0.1 | 1.56 ± 0.1 | 1.61 ± 0.11 | 1.65 ± 0.11 | 1.69 ± 0.11 |  |
| C1CCCCCCC1 [cyclooctane] + CCCCCCCCCCCC[N+](C)(C)CCOc1ccccc1.N#C[N-]C#N |  | 3.56 ± 0.24 | 3.63 ± 0.25 | 3.69 ± 0.25 | 3.72 ± 0.25 | 3.76 ± 0.26 | 3.79 ± 0.26 |
| C1CCCCCCC1 [cyclooctane] + CCCCCCCCCCCC[N+](C)(C)CCOc1ccccc1.O=S(=O)([N-]S(=O)(=O)C(F)(F)F)C(F)(F)F | 2.57 ± 0.17 | 2.61 ± 0.18 | 2.65 ± 0.18 | 2.68 ± 0.18 | 2.71 ± 0.18 | 2.75 ± 0.19 |  |
| CCCCCCCCCC [decane] + CCCCCCCCCCCC[N+](C)(C)CCOc1ccccc1.N#C[N-]C#N |  | 9.02 ± 0.62 | 9.17 ± 0.63 | 9.31 ± 0.64 | 9.45 ± 0.64 | 9.6 ± 0.65 | 9.75 ± 0.67 |
| CCCCCCCCCC [decane] + CCCCCCCCCCCC[N+](C)(C)CCOc1ccccc1.O=S(=O)([N-]S(=O)(=O)C(F)(F)F)C(F)(F)F | 5.72 ± 0.39 | 5.8 ± 0.4 | 5.87 ± 0.4 | 5.92 ± 0.4 | 5.98 ± 0.41 | 6.03 ± 0.41 |  |
| CCOCC [diethyl ether] + CCCCCCCCCCCC[N+](C)(C)CCOc1ccccc1.N#C[N-]C#N |  | 2.17 ± 0.15 | 2.22 ± 0.15 | 2.28 ± 0.16 | 2.34 ± 0.16 | 2.39 ± 0.16 | 2.44 ± 0.17 |
| CCOCC [diethyl ether] + CCCCCCCCCCCC[N+](C)(C)CCOc1ccccc1.O=S(=O)([N-]S(=O)(=O)C(F)(F)F)C(F)(F)F | 1.06 ± 0.07 | 1.12 ± 0.07 | 1.18 ± 0.08 | 1.24 ± 0.08 | 1.3 ± 0.08 | 1.36 ± 0.09 |  |
